Source: BindingDB's records for patent US20250313563 (The Broad Institute, 2025)
Where “and” joins values, the source holds several entries; their conditions need not be identical. Equal values may be shown once.

Assays:
[1] = molecular target: Glycogen synthase kinase-3 beta (Homo sapiens, UniProt P49841); assay: TR-FRET Assay
Method in brief: (§1)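 Enzyme and test compound were first incubated together for 30 minutes in assay buffer. The kinase reaction followed and was stopped with EDTA. The pSer641 signal was read by time-resolved FRET.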

[2] = molecular target: Glycogen synthase kinase-3 alpha (Homo sapiens, UniProt P49840); assay: TR-FRET Assay
Sequence of Glycogen synthase kinase-3 alpha (P49840 whole entry): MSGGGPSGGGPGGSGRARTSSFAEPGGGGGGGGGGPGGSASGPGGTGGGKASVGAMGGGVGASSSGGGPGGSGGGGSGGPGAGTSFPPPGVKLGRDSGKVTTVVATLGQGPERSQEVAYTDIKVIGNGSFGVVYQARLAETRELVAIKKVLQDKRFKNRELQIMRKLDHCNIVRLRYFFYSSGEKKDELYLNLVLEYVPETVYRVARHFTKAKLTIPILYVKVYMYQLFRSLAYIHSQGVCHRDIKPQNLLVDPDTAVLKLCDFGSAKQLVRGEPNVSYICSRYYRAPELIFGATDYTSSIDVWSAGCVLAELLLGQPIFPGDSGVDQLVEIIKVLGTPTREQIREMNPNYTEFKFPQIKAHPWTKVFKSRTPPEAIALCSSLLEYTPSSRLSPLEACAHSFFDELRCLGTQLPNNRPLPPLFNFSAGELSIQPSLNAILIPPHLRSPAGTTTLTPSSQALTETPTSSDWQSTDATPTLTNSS
Method in brief: as §1

Sequence of Glycogen synthase kinase-3 beta (P49841 whole entry): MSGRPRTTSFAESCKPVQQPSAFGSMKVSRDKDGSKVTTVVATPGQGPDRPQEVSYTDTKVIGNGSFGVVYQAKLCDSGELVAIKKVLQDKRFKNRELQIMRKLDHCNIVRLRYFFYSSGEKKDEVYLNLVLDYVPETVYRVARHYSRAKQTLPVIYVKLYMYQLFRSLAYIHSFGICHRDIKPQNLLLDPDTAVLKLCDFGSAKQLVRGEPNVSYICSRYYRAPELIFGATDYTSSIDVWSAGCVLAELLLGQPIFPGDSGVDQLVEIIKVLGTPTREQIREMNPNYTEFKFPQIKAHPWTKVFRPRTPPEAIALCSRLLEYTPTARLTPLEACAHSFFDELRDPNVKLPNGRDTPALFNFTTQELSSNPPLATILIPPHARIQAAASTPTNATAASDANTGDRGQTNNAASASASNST

| Compound | IC50 [1] | IC50 [2] |
| --- | --- | --- |
| CCC1(c2cccc(C(F)(F)F)c2)C2=CN=NC2NC2=C1C(=O)CC(C)(C)C2 (configuration not stated) [US20250313563, Compound 785762] | < 100 nM | < 100 nM |
| CCC1(c2cccc(-c3ccnc(C)c3)c2)C2=CN=NC2NC2=C1C(=O)NC(C)(C)C2 (configuration not stated) [US20250313563, Compound 914930] | 1000 to 5000 nM | < 100 nM |
| CCC1(c2cccc(N3CCOc4ncccc43)c2)C2=CN=NC2NC2=C1C(=O)CC(C)(C)C2 (configuration not stated) [US20250313563, Compound 918279] | < 100 nM | < 100 nM |
| CC[C@@]1(c2cccc(-c3cnc4n3CCCC4)c2)C2=CN=NC2NC2=C1C(=O)CC(C)(C)C2 (some centres not stated) [US20250313563, Compound 945607] | 100 to 1000 nM and > 5000 nM | < 100 nM and 1000 to 5000 nM |
| CC1(C)CC(=O)C2=C(C1)NC1=C(CN=N1)C2(C)c1cccc(-c2ccncc2)c1 (configuration not stated) [US20250313563, Compound 790730] | 100 to 1000 nM | < 100 nM |
| CC[C@]1(c2cccc(-c3ccncc3C(F)(F)F)c2)C2=CN=NC2NC2=C1C(=O)NC(C)(C)C2 (some centres not stated) [US20250313563, Compound 949516] | > 5000 nM | 1000 to 5000 nM |
| C[C@@H]1CCC[C@]2(C1)C1=C(N=NC1)NC1=C2C(=O)CC(C)(C)C1 [US20250313563, Compound 893320] | < 100 nM | < 100 nM |
| CC1(C)CC(=O)C2=C(C1)NC1=C(CN=N1)C21CCN(S(=O)(=O)c2cnnn2-c2ccccc2)CC1 [US20250313563, Compound 947466] | 100 to 1000 nM | < 100 nM |
| CCC1(c2cccc(N(C)c3cnn(C)c3)c2)C2=CN=NC2NC2=C1C(=O)CC(C)(C)C2 (configuration not stated) [US20250313563, Compound 885382] | 1000 to 5000 nM | 100 to 1000 nM |
| CC[C@]1(c2ccccc2)C2=CN=NC2NC2=C1C(=O)[C@H](C)C[C@H]2C (some centres not stated) [US20250313563, Compound 865199] | > 5000 nM | 1000 to 5000 nM |
| CC[C@@]1(c2cccc(-c3cn(C)nc3C3CC3)c2)C2=CN=NC2NC2=C1C(=O)NC(C)(C)C2 (some centres not stated) [US20250313563, Compound 951706] | < 100 nM | < 100 nM |
| CC1(C)CC(=O)C2=C(C1)NC1=C(CN=N1)C21CCC(C(F)(F)F)CC1 (configuration not stated) [US20250313563, Compound 865193] | < 100 nM and 1000 to 5000 nM | < 100 nM and 100 to 1000 nM |
| CC[C@@]1(c2cccc(S(C)(=O)=O)c2)C2=C(CC(C)(C)NC2=O)NC2N=NC(C(F)(F)F)=C21 (some centres not stated) [US20250313563, Compound 948422] | 100 to 1000 nM | 100 to 1000 nM |
| CC1(C)CC(=O)C2=C(C1)NC1=C(CN=N1)C21CCN(S(C)(=O)=O)CC1 [US20250313563, Compound 880776] | < 100 nM | < 100 nM |
| CC[C@]1(c2cccc(N3CCOc4ncccc43)c2)C2=CN=NC2NC2=C1C(=O)CC(C)(C)C2 (some centres not stated) [US20250313563, Compound 932643] | 1000 to 5000 nM | 100 to 1000 nM |
| CCC1(c2cccc(C(C)(C)F)c2)C2=CN=NC2NC2=C1C(=O)N(C)CC2 (configuration not stated) [US20250313563, Compound 913178] | 1000 to 5000 nM | 100 to 1000 nM |
| CCC1(c2cccc(-c3cnc4n3CCCC4)c2)C2=CN=NC2NC2=C1C(=O)CC(C)(C)C2 (configuration not stated) [US20250313563, Compound 943535] | < 100 nM | < 100 nM |
| CCC1(c2cccc(S(C)(=O)=O)c2)C2=CN=NC2NC2=C1C(=O)NC(C)(C)C2 (configuration not stated) [US20250313563, Compound 944020] | < 100 nM | < 100 nM |
| CCC1(c2cccc(N3CCOCC3)c2)C2=C(CC(C)(C)CC2=O)NC2N=NC(C(F)(F)F)=C21 (configuration not stated) [US20250313563, Compound 810507] | < 100 nM | < 100 nM |
| CCC1(c2cccc(-c3ccnc4c3CCC4)c2)C2=C(CC(C)(C)NC2=O)NC2N=NC(C)=C21 (configuration not stated) [US20250313563, Compound 947675] | 100 to 1000 nM | < 100 nM |
| CCC1(c2cccc(-c3cnn(C)c3C)c2)C2=CN=NC2NC2=C1C(=O)NC(C)(C)C2 (configuration not stated) [US20250313563, Compound 944021] | 100 to 1000 nM | < 100 nM |
| CC[C@]1(c2cccc(C3=C4CC=C(Cl)C=C4N=CC3)c2)C2=CN=NC2NC2=C1C(=O)NC(C)(C)C2 (some centres not stated) [US20250313563, Compound 948362] | > 5000 nM | > 5000 nM |
| CCC1(c2cccc(S(=O)(=O)CC)c2)C2=CN=NC2NC2=C1C(=O)CC(C)(C)C2 (configuration not stated) [US20250313563, Compound 889579] | < 100 nM | < 100 nM |
| CCC1(c2cccc(C(F)(F)F)c2)C2=CN=NC2NC2=C1C(=O)NC(c1ccccc1)C2 (configuration not stated) [US20250313563, Compound 917284] | 1000 to 5000 nM | 100 to 1000 nM |
| CC1(C)CC(=O)C2=C(C1)NC1=C(CN=N1)C21CCN(S(=O)(=O)c2ccn(-c3ccccc3)n2)CC1 [US20250313563, Compound 947461] | < 100 nM | < 100 nM |
| CC[C@@]1(c2cccc(-c3ccncc3)c2)C2=C(CC(C)(C)CC2=O)NC2N=NC(C)=C21 (some centres not stated) [US20250313563, Compound 913015] | < 100 nM | < 100 nM |
